In ChEMBL document CHEMBL4002572, “Development of CXCR4 modulators by virtual HTS of a novel amide-sulfamide compound library” (Eur J Med Chem, 2017):
The source made the active and inactive calls. The calls are words filed in the database; no cut-off is given here.

Assays:
[1] = molecular target: C-X-C chemokine receptor type 4 (Homo sapiens) (UniProt P61073); assay: Displacement of biotinylated-TN14003 from CXCR4 in human MDA-MB-231 cells assessed as reduction in fluorescence preincubated for 10 mins followed by biotinylated-TN14003 addition measured after 30 mins by streptavidin-rhodamine staining based microscopic analysis; assay type: cell-based
Sequence of C-X-C chemokine receptor type 4 (Homo sapiens) (P61073 whole entry): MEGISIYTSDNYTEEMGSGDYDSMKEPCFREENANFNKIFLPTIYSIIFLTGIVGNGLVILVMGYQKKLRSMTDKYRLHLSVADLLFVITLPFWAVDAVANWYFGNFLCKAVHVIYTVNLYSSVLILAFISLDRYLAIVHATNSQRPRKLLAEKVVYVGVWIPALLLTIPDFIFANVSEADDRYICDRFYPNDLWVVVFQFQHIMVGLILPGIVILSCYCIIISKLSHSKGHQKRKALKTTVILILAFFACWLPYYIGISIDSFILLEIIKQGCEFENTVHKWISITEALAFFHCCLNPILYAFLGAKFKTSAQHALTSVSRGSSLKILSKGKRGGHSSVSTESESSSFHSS

[2] = molecular target: C-X-C chemokine receptor type 4 (Homo sapiens) (UniProt P61073); assay: Potency index, ratio of AMD3100 EC to compound EC for displacement of biotinylated TN14003 from CXCR4 in human MDA-MB-231 cells; assay type: cell-based
[3] = molecular target: C-X-C chemokine receptor type 4 (Homo sapiens) (UniProt P61073); assay: Inhibition of CXCR4/CXCL12 interaction-mediated chemotaxis in human MDA-MB-231 cells assessed as inhibition of cell invasion at 100 nM after 22 hrs by hematoxylin/eosin dye-based matrigel assay relative to control
Mus musculus [4] = assay: Anti-inflammatory activity in Swiss albino mouse assessed as inhibition of xylene-induced ear edema at 30 mg/kg, ip pretreated for 1 hr followed by xylene challenge measured after 30 mins relative to control; assay type: functional
Mus musculus [5] = assay: Anti-inflammatory activity in mouse assessed as inhibition of xylene-induced ear edema at 10 mg/kg, ip administered 30 mins post xylene challenge measured after 2 hrs relative to control; assay type: functional
Mus musculus [6] = assay: Anti-inflammatory activity in xylene-induced ear edema mouse model assessed as reduction in ear thickness at 10 mg/kg, ip administered 30 mins post xylene challenge measured after 2 hrs by hematoxylin/eosin dye-based assay; assay type: functional, organism-based
Mus musculus [7] = assay: Anti-inflammatory activity in xylene-induced ear edema mouse model assessed as reduction in edema volume at 10 mg/kg, ip administered 30 mins post xylene challenge measured after 2 hrs by hematoxylin/eosin dye-based assay; assay type: functional, organism-based
Mus musculus [8] = assay: Anti-inflammatory activity in xylene-induced ear edema mouse model assessed as reduction in inflammatory cells at 10 mg/kg, ip administered 30 mins post xylene challenge measured after 2 hrs by hematoxylin/eosin dye-based assay; assay type: functional, organism-based
[9] = molecular target: C-X-C chemokine receptor type 4 (Homo sapiens) (UniProt P61073); assay: Inhibition of CXCR4/CXCL12 (unknown origin) interaction-mediated Akt phosphorylation by western blot analysis
[10] = molecular target: C-X-C chemokine receptor type 4 (Mus musculus) (UniProt P70658); assay: Inhibition of CXCR4 in mouse J774A.1 cells assessed as reduction in Crohn's disease-associated Escherichia coli 131 infection-induced TNF-alpha level at 200 nM relative to control; assay type: cell-based
Sequence of C-X-C chemokine receptor type 4 (Mus musculus) (P70658 whole entry): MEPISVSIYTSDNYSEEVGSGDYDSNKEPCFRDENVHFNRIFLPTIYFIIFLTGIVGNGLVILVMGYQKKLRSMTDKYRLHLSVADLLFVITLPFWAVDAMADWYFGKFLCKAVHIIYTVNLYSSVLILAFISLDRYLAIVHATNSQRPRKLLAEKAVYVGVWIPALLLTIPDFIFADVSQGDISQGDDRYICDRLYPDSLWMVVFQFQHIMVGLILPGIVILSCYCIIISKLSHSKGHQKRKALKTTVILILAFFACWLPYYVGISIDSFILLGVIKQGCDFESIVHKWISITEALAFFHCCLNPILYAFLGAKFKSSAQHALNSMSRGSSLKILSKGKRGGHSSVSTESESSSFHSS

MDA-MB-231 = assay: Cytotoxicity against human MDA-MB-231 cells assessed as cell viability at 10 uM measured after 24 hrs by MTT assay; assay type: cell-based; conditions: mda-mb-231, 24 h

## O=C(NCc1ccc(CNS(=O)(=O)c2ccc3c(c2)CCO3)cc1)c1cc2ccccn2n1
[1]
  EC: 1 nM
[2]
  Ratio: 1000
[3]
  inhibition: 40%

## Cc1ccc(-c2cc(C(F)(F)F)nn2-c2ccc(S(N)(=O)=O)cc2)cc1 [CELECOXIB]
Mus musculus [4]
  inhibition in vivo at 30 mg/kg: 47%

## O=C(NCc1ccc(CNS(=O)(=O)c2ccccc2F)cc1)c1cc2ccccn2n1
[1]
  EC: 100 nM
[3]
  inhibition: 40%

## O=C(NCc1ccc(CNS(=O)(=O)c2ccc3c(c2)CCO3)cc1)c1cccnc1
[1]
  EC: 1000 nM
[3]
  inhibition: 60%
Mus musculus [5]
  inhibition in vivo at 10 mg/kg: 10%

## Cc1cc(C(=O)NCc2ccc(CNS(=O)(=O)c3ccc4c(c3)CCO4)cc2)n(C)n1
[1]
  EC: 1000 nM
[3]
  inhibition: Active
Mus musculus [5]
  inhibition in vivo at 10 mg/kg: 35%

## O=C(NCc1ccc(CNS(=O)(=O)c2cccc(F)c2)cc1)c1cc2ccccn2n1
[1]
  EC: 1000 nM
[3]
  inhibition: 40%

## Cc1nnsc1C(=O)NCc1ccc(CNS(=O)(=O)c2ccc(F)c(F)c2)cc1
[1]
  EC: 10 nM
[3]
  inhibition: 40%
Mus musculus [5]
  inhibition in vivo at 10 mg/kg: 54%
Mus musculus [6]
  Activity: Active
Mus musculus [7]
  Activity: Active
Mus musculus [8]
  Activity: Active

## O=C(NCc1ccc(CNS(=O)(=O)c2ccc3c(c2)CCO3)cc1)c1cccc2c1COC2
[1]
  EC: 1000 nM
[3]
  inhibition: 40%

## c1cc(CN2CCCNCCNCCCNCC2)ccc1CN1CCCNCCNCCCNCC1
[3]
  inhibition: 55%

## O=C(NCc1ccc(CNS(=O)(=O)c2ccc(F)c(F)c2)cc1)c1cnc2ccccn12
[1]
  EC: > 1000 nM

## O=C(NCc1ccc(CNS(=O)(=O)c2ccc(F)cc2F)cc1)c1ncc[nH]1
[1]
  EC: > 1000 nM

## Cn1nccc1C(=O)NCc1ccc(CNS(=O)(=O)c2ccc3c(c2)CCO3)cc1
[1]
  EC: 1000 nM
[3]
  inhibition: 40%
Mus musculus [5]
  inhibition in vivo at 10 mg/kg: 38%

## O=C(NCc1ccc(CNS(=O)(=O)c2ccc(F)cc2F)cc1)c1cncnc1
[1]
  EC: 1 nM
[2]
  Ratio: 1000
[3]
  inhibition: 74%
Mus musculus [5]
  inhibition in vivo at 10 mg/kg: 56%
Mus musculus [6]
  Activity: Active
Mus musculus [7]
  Activity: Active
Mus musculus [8]
  Activity: Active
[9]
  inhibition: Dose-dependent effect
[10]
  inhibition: 67%
MDA-MB-231
  Activity: Non-Toxic

## O=C(NCc1ccc(CNS(=O)(=O)c2ccc3c(c2)CCO3)cc1)c1scc2c1OCCO2
[1]
  EC: 10 nM
[3]
  inhibition: 68%
Mus musculus [5]
  inhibition in vivo at 10 mg/kg: 0%
